Source: ChEMBL document CHEMBL5375992, “Design and Development of IKZF2 and CK1α Dual Degraders” (J Med Chem, 2023)
Activity calls are given as the source filed them. The rule behind the calls is not given here.

Tests used:
A2780 = test: Cytotoxicity against human A2780 cells incubated for 5 days by MTT assay; type: functional, cell-based; details: time 5.0 day
OCI-Ly3 = test: Cytotoxicity against human OCILY3 cells incubated for 5 days by MTT assay; type: functional, cell-based; details: time 5.0 day
[1] = Metabolic stability in human liver microsomes assessed as intrinsic clearance preincubated with NADPH and UDPGA for 5 mins followed by compound addition and measured upto 60 mins by LC-MS/MS analysis; type: ADME, Microsome; details: read-out: CLH
[2] = Metabolic stability in mouse liver microsomes assessed as half life preincubated with NADPH and UDPGA for 5 mins followed by compound addition and measured upto 60 mins by LC-MS/MS analysis; type: ADME, Microsome
[3] = target: T1, Protein cereblon/Zinc finger protein Helios (Homo sapiens) (UniProt Q96SW2+Q9UKS7); test: Protac activity at CRBN/IKZF2 (unknown origin) transfected in HEK293T cells at 100 nM incubated for 24 hrs by flow cytometry analysis relative to control; type: cell-based
T1 sequence (Q96SW2 whole entry, looked up): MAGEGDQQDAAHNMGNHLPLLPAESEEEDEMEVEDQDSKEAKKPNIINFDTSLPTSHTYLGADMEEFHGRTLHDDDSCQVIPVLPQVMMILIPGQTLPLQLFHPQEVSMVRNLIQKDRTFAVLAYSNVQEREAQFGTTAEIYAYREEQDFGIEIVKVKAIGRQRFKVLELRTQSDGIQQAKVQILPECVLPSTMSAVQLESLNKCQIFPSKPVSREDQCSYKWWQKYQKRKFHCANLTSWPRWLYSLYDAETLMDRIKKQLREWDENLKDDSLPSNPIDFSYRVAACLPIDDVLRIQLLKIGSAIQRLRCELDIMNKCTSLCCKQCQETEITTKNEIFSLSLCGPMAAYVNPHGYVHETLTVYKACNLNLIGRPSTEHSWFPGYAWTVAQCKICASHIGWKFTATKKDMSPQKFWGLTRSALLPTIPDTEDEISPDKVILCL
T1 sequence (Q9UKS7 whole entry, looked up): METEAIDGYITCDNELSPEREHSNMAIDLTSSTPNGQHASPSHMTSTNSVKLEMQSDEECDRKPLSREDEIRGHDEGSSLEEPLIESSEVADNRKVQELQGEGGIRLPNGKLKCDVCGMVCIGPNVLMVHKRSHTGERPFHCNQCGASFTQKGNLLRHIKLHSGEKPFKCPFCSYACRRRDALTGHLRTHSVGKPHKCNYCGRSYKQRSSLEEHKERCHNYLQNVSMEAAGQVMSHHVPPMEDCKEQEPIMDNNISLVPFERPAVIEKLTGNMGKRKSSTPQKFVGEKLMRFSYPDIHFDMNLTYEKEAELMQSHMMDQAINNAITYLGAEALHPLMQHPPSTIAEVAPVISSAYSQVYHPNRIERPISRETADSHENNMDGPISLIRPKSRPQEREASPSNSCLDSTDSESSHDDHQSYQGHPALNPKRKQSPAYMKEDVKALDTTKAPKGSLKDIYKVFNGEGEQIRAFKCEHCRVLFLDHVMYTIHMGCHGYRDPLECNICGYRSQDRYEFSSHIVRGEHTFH

[4] = target: T2, Cereblon/Casein kinase I alpha (Homo sapiens) (UniProt P48729+Q96SW2); test: Protac activity at CRBN/CK1alpha (unknown origin) transfected in HEK293T cells at 100 nM incubated for 24 hrs by flow cytometry analysis relative to control; type: cell-based
T2 sequence (P48729 2-337 limits assumed): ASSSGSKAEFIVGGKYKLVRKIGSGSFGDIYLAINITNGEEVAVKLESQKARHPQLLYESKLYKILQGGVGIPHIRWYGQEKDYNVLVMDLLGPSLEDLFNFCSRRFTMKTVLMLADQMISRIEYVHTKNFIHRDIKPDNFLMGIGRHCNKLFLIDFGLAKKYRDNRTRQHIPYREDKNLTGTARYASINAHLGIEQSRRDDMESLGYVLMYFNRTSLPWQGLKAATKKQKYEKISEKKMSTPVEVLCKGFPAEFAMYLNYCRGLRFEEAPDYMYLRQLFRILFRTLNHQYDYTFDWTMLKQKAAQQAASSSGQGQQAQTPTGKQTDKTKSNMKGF
T2 sequence (Q96SW2 whole entry partner): as the sequence (Q96SW2 whole entry, looked up) above

[5] = Metabolic stability in mouse liver microsomes assessed as intrinsic clearance preincubated with NADPH and UDPGA for 5 mins followed by compound addition and measured upto 60 mins by LC-MS/MS analysis; type: ADME, Microsome; details: read-out: CLH
[6] = Metabolic stability in human liver microsomes assessed as half life preincubated with NADPH and UDPGA for 5 mins followed by compound addition and measured upto 60 mins by LC-MS/MS analysis; type: ADME, Microsome
[7] = target: T3, Protein cereblon/Eukaryotic peptide chain release factor GTP-binding subunit ERF3A (Homo sapiens) (UniProt Q96SW2+P15170); test: Protac activity at CRBN/GSPT1 (unknown origin) transfected in HEK293T cells at 100 nM incubated for 24 hrs by flow cytometry analysis relative to control; type: cell-based
T3 sequence (P15170 whole entry, looked up): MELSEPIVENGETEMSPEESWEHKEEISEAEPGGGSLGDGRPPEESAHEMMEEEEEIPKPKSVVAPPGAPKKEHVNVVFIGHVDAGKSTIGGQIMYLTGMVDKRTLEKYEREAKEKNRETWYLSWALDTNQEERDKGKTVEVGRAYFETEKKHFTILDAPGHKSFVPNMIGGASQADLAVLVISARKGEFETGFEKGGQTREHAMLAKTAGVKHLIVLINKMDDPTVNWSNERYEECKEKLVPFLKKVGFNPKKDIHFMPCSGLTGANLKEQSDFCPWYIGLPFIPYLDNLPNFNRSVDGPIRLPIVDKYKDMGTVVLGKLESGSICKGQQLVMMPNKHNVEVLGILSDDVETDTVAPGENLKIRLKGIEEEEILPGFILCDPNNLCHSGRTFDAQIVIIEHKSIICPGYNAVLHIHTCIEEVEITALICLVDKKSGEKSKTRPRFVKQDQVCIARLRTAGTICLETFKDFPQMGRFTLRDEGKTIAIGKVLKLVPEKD
T3 sequence (Q96SW2 whole entry, looked up): as the sequence (Q96SW2 whole entry, looked up) above

[8] = target: T2, Cereblon/Casein kinase I alpha (Homo sapiens); test: Protac activity at CRBN/CK1alpha (unknown origin) transfected in HEK293T cells at 1 uM incubated for 24 hrs by flow cytometry analysis relative to control; type: cell-based
[9] = target: T4, Cereblon/Ikaros (Homo sapiens) (UniProt Q96SW2+Q13422); test: Protac activity at CRBN/IKZF1 (unknown origin) transfected in HEK293T cells at 100 nM incubated for 24 hrs by flow cytometry analysis relative to control; type: cell-based
[10] = target: T3, Protein cereblon/Eukaryotic peptide chain release factor GTP-binding subunit ERF3A (Homo sapiens); test: Protac activity at CRBN/GSPT1 in human NCI-H1048 cells at 10 to 100 nM incubated for 24 hrs by Western blotting analysis; type: cell-based; details: dose 10-100 nM
[11] = target: T3, Protein cereblon/Eukaryotic peptide chain release factor GTP-binding subunit ERF3A (Homo sapiens); test: Protac activity at CRBN/GSPT1 (unknown origin) transfected in HEK293T cells at 1 uM incubated for 24 hrs by flow cytometry analysis relative to control; type: cell-based
[12] = target: T1, Protein cereblon/Zinc finger protein Helios (Homo sapiens); test: Protac activity at CRBN/IKZF2 (unknown origin) transfected in HEK293T cells at 1 uM incubated for 24 hrs by flow cytometry analysis relative to control; type: cell-based
[13] = target: T4, Cereblon/Ikaros (Homo sapiens); test: Protac activity at CRBN/IKZF1 (unknown origin) transfected in HEK293T cells at 1 uM incubated for 24 hrs by flow cytometry analysis relative to control; type: cell-based
[14] = target: T4, Cereblon/Ikaros (Homo sapiens); test: Protac activity at CRBN/IKZF1 in human MOLM-13 cells assessed as relative ratio at 25 uM incubated for 24 hrs by Western blotting analysis relative to DMSO; type: cell-based
[15] = target: T1, Protein cereblon/Zinc finger protein Helios (Homo sapiens); test: Protac activity at CRBN/IKZF2 in human MOLM-13 cells assessed as relative ratio at 25 uM incubated for 24 hrs by Western blotting analysis relative to DMSO; type: cell-based
[16] = target: T1, Protein cereblon/Zinc finger protein Helios (Homo sapiens); test: Protac activity at CRBN/IKZF2 in human MOLM-13 cells at 25 uM incubated for 24 hrs by Western blotting analysis relative to control; type: cell-based
[17] = target: T4, Cereblon/Ikaros (Homo sapiens); test: Protac activity at CRBN/IKZF1 in human MOLM-13 cells at 25 uM incubated for 24 hrs by Western blotting analysis relative to control; type: cell-based

microsomal CLint [1] | half-life [2] | Activity [3] | Activity [4] | microsomal CLint [5] | half-life [6] | SMILES | further results
– | – | – | – | – | – | COc1cc(C(=O)O)ccc1NC(=O)[C@@H]1N[C@@H](CC(C)(C)C)[C@](C#N)(c2ccc(Cl)cc2F)[C@H]1c1cccc(Cl)c1F | Activity (A2780): inactive; Activity (OCI-Ly3): inactive
87.4 µL/min/mg | 23.9 min | 87% | 69% | 57.9 µL/min/mg | 15.9 min | COc1ccc2nc(C(=O)Nc3ccc4c(c3)CN(C3CCC(=O)NC3=O)C4=O)ccc2c1 (configuration not stated) | –
362 µL/min/mg | 188 min | 90% | 70% | 7.4 µL/min/mg | – | COc1ccc2cc(C(=O)Nc3ccc4c(c3)CN(C3CCC(=O)NC3=O)C4=O)ccc2c1 (configuration not stated) | Activity [7]: 8%; Activity [8]: 70%; Activity [9]: 7%; Activity ([3]; tested as the 2H-labelled form): 70%; Activity ([4]; tested as the 2H-labelled form): 52%; Activity [10]: Active; Activity [11]: 18%; Activity [12]: 94%; Activity [13]: 9%
< 5.4 µL/min/mg | > 255 min | 80% | 71% | < 5.4 µL/min/mg | > 255 min | CCOc1ccc2cc(C(=O)Nc3ccc4c(c3)CN(C3CCC(=O)NC3=O)C4=O)ccc2c1 (configuration not stated) | –
290 µL/min/mg | > 255 min | – | – | < 5.4 µL/min/mg | 4.8 min | [2H]C([2H])([2H])Oc1ccc2cc(C(=O)Nc3ccc4c(c3)CN(C3CCC(=O)NC3=O)C4=O)ccc2c1 (configuration not stated) | –
– | > 360 min | – | – | – | > 360 min | Nc1cccc2c1CN(C1CCC(=O)NC1=O)C2=O (configuration not stated) [LENALIDOMIDE] | –
108 µL/min/mg | > 255 min | 89% | 68% | < 5.4 µL/min/mg | 16.1 min | COc1ccc2cc(C(=O)Nc3ccc4c(c3)CN(C3CCC(=O)NC3=O)C4=O)ccc2n1 (configuration not stated) | –
68.4 µL/min/mg | > 255 min | 73% | 62% | < 5.4 µL/min/mg | 20.3 min | COc1ccc2cc(C(=O)Nc3ccc4c(c3)CN(C3CCC(=O)NC3=O)C4=O)cnc2c1 (configuration not stated) | –
< 5.4 µL/min/mg | > 255 min | 81% | 70% | < 5.4 µL/min/mg | > 255 min | CCCCOc1ccc2cc(C(=O)Nc3ccc4c(c3)CN(C3CCC(=O)NC3=O)C4=O)ccc2c1 (configuration not stated) | –
< 5.4 µL/min/mg | > 255 min | – | – | < 5.4 µL/min/mg | > 255 min | O=C1CCC(N2Cc3cc(NC(=O)c4ccc5ccccc5c4)ccc3C2=O)C(=O)N1 (configuration not stated) | Ratio [14]: 0.5; Ratio [15]: 0.27; Activity [16]: Active; Activity [17]: inactive
584 µL/min/mg | 209 min | 68% | 61% | 6.6 µL/min/mg | 2.4 min | COc1ccc2cc(C(=O)Nc3ccc4c(c3)CN(C3CCC(=O)NC3=O)C4=O)ncc2c1 (configuration not stated) | –
< 5.4 µL/min/mg | > 255 min | 81% | 70% | < 5.4 µL/min/mg | > 255 min | CC(C)Oc1ccc2cc(C(=O)Nc3ccc4c(c3)CN(C3CCC(=O)NC3=O)C4=O)ccc2c1 (configuration not stated) | –
